Results on 4 compounds are retold here after patent publication US9549926B2, “Compositions and methods of treating pulmonary hypertension” (Gilead Sciences, Inc., priority 2010, dated 2017).

A word on the IC50: it is the concentration that gives 50% inhibition.

Like-named read-outs stand apart in the source and are kept apart here.

Data set [1] relates to ET-1-induced contraction of rat intact thoracic aortic rings. As to the kind of experiment: Ex-vivo vascular function assay: relaxation of ET-1-contracted intact rat thoracic aortic rings. It is filed as cell-based. The settings on record: for relaxation of intact thoracic aortic rings in the presence of ET-1: Example 1, FIG. 1, 8 nM ET-1, 10 nM ambrisentan, 30 nM tadalafil, alone or in combination, n=3; for IC50: Rattus norvegicus, read-out: IC50 to relax ET-1 constricted aortic rings. The protocol: The combination of both 10 nM ambrisentan and 30 nM tadalafil relaxed the ET-1-induced contraction of the intact thoracic aortic rings by 81±7% (FIG. 1, n=3; P<0.01 vs. mono-administration of ambrisentan or tadalafil). […] Intrapulmonary arteries (200-500 μm) and aortas were isolated from Sprague Dawley rats (300-320 g) and cut into 1-2 mm rings. Rings were mounted in a myograph and constricted with a submaximal concentration (8 nM) of ET-1. Ambrisentan, Bosentan, Macitentan and Tadalafil alone and in combination were evaluated in ET-constricted rings.

The target of the next data set is T1, ETA receptor (Homo sapiens, UniProt P25101).
T1 sequence (P25101 21-427): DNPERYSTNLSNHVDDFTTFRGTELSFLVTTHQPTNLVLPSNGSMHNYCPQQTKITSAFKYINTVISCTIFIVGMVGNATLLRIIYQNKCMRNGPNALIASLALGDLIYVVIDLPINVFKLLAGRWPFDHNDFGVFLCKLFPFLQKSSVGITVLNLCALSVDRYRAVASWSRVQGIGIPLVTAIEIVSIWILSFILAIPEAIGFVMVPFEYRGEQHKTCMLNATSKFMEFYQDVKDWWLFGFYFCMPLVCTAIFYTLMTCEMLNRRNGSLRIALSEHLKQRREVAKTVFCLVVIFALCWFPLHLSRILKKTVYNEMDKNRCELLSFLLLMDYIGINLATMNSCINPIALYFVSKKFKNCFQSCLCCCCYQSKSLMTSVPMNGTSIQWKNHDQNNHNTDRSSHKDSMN
The settings on record: read-out: affinity for the ETA receptor; cited from earlier work.

Data set [2] relates to ET-1-induced contraction of rat intact intrapulmonary arterial rings. As to the kind of experiment: Ex-vivo vascular function assay: relaxation of ET-1-contracted intact rat intrapulmonary arterial rings. It counts as cell-based. The note with it: 8 nM ET-1, 10 nM ambrisentan, 30 nM tadalafil, alone or in combination, mean±SEM. The protocol: The selective type-A endothelin receptor antagonist, ambrisentan ([…]®), and the phosphodiesterase type 5 inhibitor, tadalafil ([…]®), are currently used to treat pulmonary arterial hypertension. Isolated rat intact intrapulmonary arterial rings contracted with 8 nM endothelin-1 (ET-1) were relaxed by 10 nM ambrisentan (from Gilead Sciences, Inc.) and 30 nM tadalafil (from Sequoia Research Products Ltd. Pangbourne, UK) by 30±13% (mean±SEM, n=3) and 12±5% (n=3), respectively, whereas both drugs in combination relaxed the intact intrapulmonary arterial rings by […] (FIG. 1, n=3, P<0.01 vs. mono-administration of ambrisentan or tadalafil). Intrapulmonary arteries (200-500 μm) and aortas were isolated from Sprague Dawley rats (300-320 g) and cut into 1-2 mm rings. Rings were mounted in a myograph and constricted with a submaximal concentration (8 nM) of ET-1. Ambrisentan, Bosentan, Macitentan and Tadalafil alone and in combination were evaluated in ET-constricted rings. Isolated rat intact intrapulmonary arterial rings contracted with 8 nM endothelin-1 (ET-1) were relaxed by 10 nM ambrisentan and 30 nM tadalafil by 29±1% (mean±SEM, n=4) and 22±2% (n=4), respectively, whereas both drugs in combination relaxed the intact intrapulmonary arterial rings by 85±3% (FIG. 2, n=4, P<0.01 vs. mono-administration of ambrisentan or tadalafil).

Data set [3] relates to ET-1-induced contraction of endothelium-denuded aortic rings. As to the kind of experiment: ET-1-induced contraction of endothelium-denuded aortic rings. The settings on record: 10 nM ambrisentan, n=4. It is filed as cell-based, rat. On the procedure: (§1) Intrapulmonary arteries (200-500 μm) and aortas were isolated from Sprague Dawley rats (300-320 g) and cut into 1-2 mm rings. Rings were mounted in a myograph and constricted with a submaximal concentration (8 nM) of ET-1. Ambrisentan, Bosentan, Macitentan and Tadalafil alone and in combination were evaluated in ET-constricted rings.

Data set [4] deals with hypoxia-induced mean pulmonary arterial pressure (mPAP) in male SD rats. As to the kind of experiment: Hypoxia-induced pulmonary arterial hypertension (PAH) animal model. It counts as in vivo. The settings on record: 3 wks hypoxia, rat. The protocol: Male SD Rats (225-250 g) were housed in chambers under normoxic (sea level) or hypoxic (10% oxygen) conditions for 3 weeks. Rats were dosed with vehicle (0.5% hydroxypropyl methylcellulose (HPMC), 0.2% Tween 80, and 0.9% benzyl alcohol in water), AMB or TAD (quaque die) beginning the day they were placed in chambers. Plasma was collected when animals were terminated. [table]

Data set [5] has as its system ET-1-induced contraction of endothelium-denuded pulmonary arterial rings. As to the kind of experiment: ET-1-induced contraction of endothelium-denuded pulmonary arterial rings. It is filed as cell-based, rat. The note with it: FIG. 5, 10 nM ambrisentan, 30 nM tadalafil, n=4. On the procedure: as §1
The nature of data set [6]: Free plasma concentration in the rat PAH study. It is filed as in vivo. The settings on record: Sprague-Dawley, read-out: free or unbounded plasma concentration. On the procedure: Rats were dosed with vehicle (0.5% hydroxypropyl methylcellulose (HPMC), 0.2% Tween 80, and 0.9% benzyl alcohol in water), AMB or TAD (quaque die) beginning the day they were placed in chambers. Plasma was collected when animals were terminated.
The free or unbounded plasma concentration for 10 mpk AMB dosing was about 104 nM in both cases. The free or unbounded plasma concentrations of TAD was about 24 nM when administered separately, or about 26 nM when administered with AMB, whether 1 mpk or 10 mpk.

[7] abbreviates: Example 2, FIG. 2, 100 nM bosentan, 30 nM macitentan.

`COC(c1ccccc1)(c1ccccc1)[C@H](Oc1nc(C)cc(C)n1)C(=O)O` [ambrisentan, (2S)-2-[(4,6-dimethylpyrimidin-2-yl)oxy]-3-methoxy-3,3-diphenylpropanoic acid]: in data set [1], the “relaxation of intact thoracic aortic rings in the presence of ET-1” value was determined as 32±3%. For the same compound, the Ki on ETA receptor was approximately 0.012 nM. Moreover, the “relaxation of intact intrapulmonary arterial rings contracted with ET-1” value (shortened to “relaxation … with ET-1”) in data set [2] (Example 1, FIG. 1, n=3) worked out at 30±13%; in data set [2] (setting [7]) it was 29±1%. Further, the “reduction of contraction induced by ET-1” value came out at 26±7% in data set [3] and 23±4% in data set [5]. Further, the “inhibition of PAP (mPAP±SEM)” value in data set [4] (1 mpk AMB once daily) stood at 28.4±1.1%; in data set [4] (10 mpk AMB once daily) it was 42.1±2.4%. Also, the concentration at 3 weeks in data set [6] (1 mpk, AMB 1 mpk, administered separately) was approximately 17 nM; in data set [6] (AMB 1 mpk, administered along with TAD) it was approximately 13 nM; in data set [6] (AMB 10 mpk, separately or with TAD (both cases)), approximately 104 nM.

Turning to `COc1ccccc1Oc1c(NS(=O)(=O)c2ccc(C(C)(C)C)cc2)nc(-c2ncccn2)nc1OCCO` [bosentan], the “relaxation … with ET-1” value in data set [2] (setting [7]) is 25±1%.

`CCCNS(=O)(=O)Nc1ncnc(OCCOc2ncc(Br)cn2)c1-c1ccc(Br)cc1` [macitentan]: in data set [2] (setting [7]), the “relaxation … with ET-1” value was 31±2%.

As for `CN1CC(=O)N2[C@H](c3ccc4c(c3)OCO4)c3[nH]c4ccccc4c3C[C@@H]2C1=O` [tadalafil, (6R-trans)-6-(1,3-benzodioxol-5-yl)-2,3,6,7,12,12a-hexahydro-2-methyl-pyrazino [1′, 2′:1,6] pyrido[3,4-b]indole-1,4-dione], in data set [1], the “relaxation of intact thoracic aortic rings in the presence of ET-1” value is on record as 16±4%. Also, the IC50 in data set [1] (in the presence of 10 nM ambrisentan) is 16 nM; in data set [1] (tadalafil alone) it was 79 nM. For the same compound, the “relaxation … with ET-1” value is given as 12±5% in data set [2] (Example 1, FIG. 1, n=3) and 22±2% in data set [2] (setting [7]). The “reduction of contraction induced by ET-1” value in data set [3] and in data set [5] was “failed to inhibit contraction” each time. Also, in data set [4] (10 mpk TAD once daily), the “inhibition of PAP (mPAP±SEM)” value came to 23.2±1.3%. The concentration at 3 weeks is approximately 24 nM in data set [6] (10 mpk, TAD (10 mpk), administered separately) and approximately 26 nM in data set [6] (TAD (10 mpk), administered with AMB, 1 mpk or 10 mpk).
